Values after ≈ are worked out from the molar mass of the structure shown. Like-named read-outs stand apart in the source and are kept apart here.
Key:
[1] = test system: E. faecalis NR-31971; conditions: cited from earlier work
[2] = test system: E. faecium NR-31954; assay: MIC assay; format: cell-based
[3] = test system: mouse gut microbiome; assay: Mouse gut microbiome diversity in fecal pellets; format: in vivo, C57BL/6 mice; conditions: 20 mg/kg PO QD; CAI0019 days 7 or 14, linezolid day 7, vs pre-treatment
[4] = test system: E. faecalis NR-31970; assay: MIC assay; format: cell-based
[5] = test system: E. faecium HM-965; assay: MIC assay; format: cell-based
[6] = test system: E. faecium NR-32052; conditions: cited from earlier work
[7] = test system: E. faecium NR-32065; conditions: cited from earlier work
[8] = test system: E. faecium NR-31916; conditions: cited from earlier work
[9] = test system: E. faecium NR-31909; assay: Multi-step resistance selection assay; format: cell-based; conditions: starting passage 13
[10] = test system: E. hirae ATCC 10541; assay: MIC assay; format: cell-based
[11] = test system: E. faecium HM-968; conditions: cited from earlier work
[12] = test system: E. gallinarum ATCC 49373; assay: MIC assay; format: cell-based
[13] = test system: E. faecium HM-970; assay: MIC assay; format: cell-based
[14] = test system: E. durans ATCC 11576; assay: MIC assay; format: cell-based
[15] = test system: E. faecium NR-31909; assay: E. faecium septicemic peritonitis mouse model; format: in vivo, BALB/c mice
[16] = test system: all tested Enterococcus strains; assay: MIC assay, all tested Enterococcus strains; format: cell-based
[17] = test system: Listeria Monocytogenes ATCC 19111; assay: MIC assay; format: cell-based
[18] = test system: E. faecalis NR-31972; conditions: cited from earlier work
[19] = test system: E. faecium NR-32094; assay: MIC assay; format: cell-based
[20] = test system: E. faecalis HM-335; conditions: cited from earlier work
[21] = test system: E. faecium NR-31937; assay: MIC assay; format: cell-based
[22] = test system: E. faecalis HM-201; assay: MIC assay; format: cell-based
[23] = test system: E. faecium NR-31909; assay: MIC assay; format: cell-based
[24] = test system: E. faecium NR-31903; conditions: cited from earlier work
[25] = test system: E. faecium NR-28978; conditions: cited from earlier work
[26] = test system: E. faecalis and E. faecium strains; assay: MIC assay, panel of 25 E. faecalis and E. faecium strains; format: cell-based
[27] = test system: E. faecalis HM-934; assay: MIC assay; format: cell-based
[28] = test system: Staphylococcus aureus USA300; assay: MIC assay; format: cell-based
[29] = test system: E. faecium NR-31933; assay: MIC assay; format: cell-based
[30] = test system: E. faecium ATCC 700221; assay: MIC assay; format: cell-based
[31] = test system: Staphylococcus epidermidis NRS101; assay: MIC assay; format: cell-based
[32] = test system: E. faecium NR-32053; assay: MIC assay; format: cell-based
[33] = test system: E. faecalis HM-334; conditions: cited from earlier work
[34] = test system: E. faecium HM-952; assay: MIC assay; format: cell-based
[35] = test system: E. avium ATCC 14025; assay: MIC assay; format: cell-based
[36] = test system: Bacillus subtilis ATCC11774; assay: MIC assay; format: cell-based
[37] = test system: E. saccharolyticus ATCC 43076; assay: MIC assay; format: cell-based
[38] = test system: E. raffinosus ATCC 49464; assay: MIC assay; format: cell-based
[39] = test system: E. faecium NR-31914; conditions: cited from earlier work
[40] = test system: E. faecium NR-31912; assay: MIC assay; format: cell-based
[41] = test system: E. casseliflavus ATCC 700327; assay: MIC assay; format: cell-based
[42] = 5% CO2 atmosphere at 37° C, no CAs, expresses MpsAB homologs

Compound: CC(=O)NC[C@H]1CN(c2ccc(N3CCOCC3)c(F)c2)C(=O)O1 [LNZ, linezolid]
- MIC ([1]; 5% CO2 atmosphere at 37° C): 2.96 µM (≈ 0.999 µg/mL)
- MIC ([1]; ambient air at 37° C): 2.96 µM (≈ 0.999 µg/mL)
- MIC ([2]; 5% CO2 atmosphere at 37° C): 2.96 µM (≈ 0.999 µg/mL)
- MIC ([2]; Enterococcus faecium, NR31954): 2.96 µM (≈ 0.999 µg/mL)
- change in microbiome diversity in fecal samples [3]: no significant change
- MIC ([4]; 5% CO2 atmosphere at 37° C): 2.96 µM (≈ 0.999 µg/mL)
- MIC ([4]; Enterococcus faecalis, NR31970): 2.96 µM (≈ 0.999 µg/mL)
- MIC ([5]; 5% CO2 atmosphere at 37° C): 2.96 µM (≈ 0.999 µg/mL)
- MIC ([5]; Enterococcus faecium, HM965): 2.96 µM (≈ 0.999 µg/mL)
- MIC ([6]; 5% CO2 atmosphere at 37° C): 1.48 µM (≈ 0.499 µg/mL)
- MIC ([6]; ambient air at 37° C): 1.48 µM (≈ 0.499 µg/mL)
- MIC ([7]; 5% CO2 atmosphere at 37° C): 1.48 µM (≈ 0.499 µg/mL)
- MIC ([7]; ambient air at 37° C): 0.74 µM (≈ 0.25 µg/mL)
- MIC ([8]; 5% CO2 atmosphere at 37° C): 2.96 µM (≈ 0.999 µg/mL)
- MIC ([8]; ambient air at 37° C): 2.96 µM (≈ 0.999 µg/mL)
- MIC increase [9]: 2 fold MIC
- MIC ([10]; 5% CO2 atmosphere at 37° C): 2.96 µM (≈ 0.999 µg/mL)
- MIC ([10]; Enterococcus hirae, ATCC10541): 2.96 µM (≈ 0.999 µg/mL)
- MIC ([11]; 5% CO2 atmosphere at 37° C): 2.96 µM (≈ 0.999 µg/mL)
- MIC ([11]; ambient air at 37° C): 1.48 µM (≈ 0.499 µg/mL)
- MIC ([12]; 5% CO2 atmosphere at 37° C): 2.96 µM (≈ 0.999 µg/mL)
- MIC ([12]; Enterococcus gallinarum, ATCC49373|GALLINARUM): 2.96 µM (≈ 0.999 µg/mL)
- MIC ([13]; 5% CO2 atmosphere at 37° C): 2.96 µM (≈ 0.999 µg/mL)
- MIC ([13]; Enterococcus faecium, HM970): 2.96 µM (≈ 0.999 µg/mL)
- MIC ([14]; 5% CO2 atmosphere at 37° C): 2.96 µM (≈ 0.999 µg/mL)
- MIC ([14]; Enterococcus durans, ATCC11576): 2.96 µM (≈ 0.999 µg/mL)
- survival (mice rescued) ([15]; 20 mg/kg PO once-daily for three days, n = 6/group): 83%
- reduction of VRE bioburden compared to vehicle ([15]; kidney, liver and spleen, each tissue, 20 mg/kg PO QD three days): at least 2 Log10 CFU/mL
- reduction of VRE bioburden ([15]; kidney, liver and spleen, three-day treatment): > 99%
- MIC shift in the presence of CO2 ([16]; 5% CO2 versus ambient air): no MIC shift
- MIC50 ([16]; Enterococcus, read-out: All Enterococci spp. MIC50): 2.96 µM (≈ 0.999 µg/mL)
- MIC90 ([16]; Enterococcus, read-out: All Enterococci spp. MIC90): 2.96 µM (≈ 0.999 µg/mL)
- MIC ([17]; 5% CO2 atmosphere at 37° C, encodes only α-CA, no MpsAB homologs): 2.96 µM (≈ 0.999 µg/mL)
- MIC ([17]; Listeria monocytogenes, ATCC19111): 2.96 µM (≈ 0.999 µg/mL)
- MIC ([18]; 5% CO2 atmosphere at 37° C): 2.96 µM (≈ 0.999 µg/mL)
- MIC ([18]; ambient air at 37° C): 1.48 µM (≈ 0.499 µg/mL)
- MIC ([19]; 5% CO2 atmosphere at 37° C): 1.48 µM (≈ 0.499 µg/mL)
- MIC ([19]; Enterococcus faecium, NR32094): 1.48 µM (≈ 0.499 µg/mL)
- MIC ([20]; 5% CO2 atmosphere at 37° C): 2.96 µM (≈ 0.999 µg/mL)
- MIC ([20]; ambient air at 37° C): 1.48 µM (≈ 0.499 µg/mL)
- MIC ([21]; 5% CO2 atmosphere at 37° C): 2.96 µM (≈ 0.999 µg/mL)
- MIC ([21]; Enterococcus faecium, NR31937): 2.96 µM (≈ 0.999 µg/mL)
- MIC ([22]; 5% CO2 atmosphere at 37° C): 2.96 µM (≈ 0.999 µg/mL)
- MIC ([22]; Enterococcus faecalis, HM201): 2.96 µM (≈ 0.999 µg/mL)
- MIC ([23]; 5% CO2 atmosphere at 37° C): 2.96 µM (≈ 0.999 µg/mL)
- MIC ([23]; Enterococcus faecium, NR31909): 2.96 µM (≈ 0.999 µg/mL)
- MIC ([24]; 5% CO2 atmosphere at 37° C): 47.4 µM (≈ 16 µg/mL)
- MIC ([24]; ambient air at 37° C): 47.4 µM (≈ 16 µg/mL)
- MIC ([25]; 5% CO2 atmosphere at 37° C): 2.96 µM (≈ 0.999 µg/mL)
- MIC ([25]; ambient air at 37° C): 2.96 µM (≈ 0.999 µg/mL)
- MIC50 ([26]; read-out: Ef MIC50): 2.96 µM (≈ 0.999 µg/mL)
- MIC90 ([26]; read-out: Ef MIC90): 2.96 µM (≈ 0.999 µg/mL)
- MIC ([27]; 5% CO2 atmosphere at 37° C): 2.96 µM (≈ 0.999 µg/mL)
- MIC ([27]; Enterococcus faecalis, HM934): 2.96 µM (≈ 0.999 µg/mL)
- MIC [28, 42]: 1.48 µM (≈ 0.499 µg/mL)
- MIC ([28]; Staphylococcus aureus, USA300): 1.48 µM (≈ 0.499 µg/mL)
- MIC ([29]; 5% CO2 atmosphere at 37° C): 2.96 µM (≈ 0.999 µg/mL)
- MIC ([29]; Enterococcus faecium, NR31933): 2.96 µM (≈ 0.999 µg/mL)
- MIC ([30]; 5% CO2 atmosphere at 37° C): 2.96 µM (≈ 0.999 µg/mL)
- MIC ([30]; Enterococcus faecium, ATCC700221): 2.96 µM (≈ 0.999 µg/mL)
- MIC [31, 42]: 2.96 µM (≈ 0.999 µg/mL)
- MIC ([31]; Staphylococcus epidermidis, NRS101): 2.96 µM (≈ 0.999 µg/mL)
- MIC ([32]; 5% CO2 atmosphere at 37° C): 2.96 µM (≈ 0.999 µg/mL)
- MIC ([32]; Enterococcus faecium, NR32053): 2.96 µM (≈ 0.999 µg/mL)
- MIC ([33]; 5% CO2 atmosphere at 37° C): 2.96 µM (≈ 0.999 µg/mL)
- MIC ([33]; ambient air at 37° C): 2.96 µM (≈ 0.999 µg/mL)
- MIC ([34]; 5% CO2 atmosphere at 37° C): 2.96 µM (≈ 0.999 µg/mL)
- MIC ([34]; Enterococcus faecium, HM952): 2.96 µM (≈ 0.999 µg/mL)
- MIC ([35]; 5% CO2 atmosphere at 37° C): 2.96 µM (≈ 0.999 µg/mL)
- MIC ([35]; Enterococcus avium, ATCC14025): 2.96 µM (≈ 0.999 µg/mL)
- MIC ([36]; 5% CO2 atmosphere at 37° C, encodes both MpsAB and CAs): 1.48 µM (≈ 0.499 µg/mL)
- MIC ([36]; Bacillus subtilis, ATCC11774): 1.48 µM (≈ 0.499 µg/mL)
- MIC [37]: 2.96 µM (≈ 0.999 µg/mL)
- MIC ([37]; 5% CO2 atmosphere at 37° C): 2.96 µM (≈ 0.999 µg/mL)
- MIC ([38]; 5% CO2 atmosphere at 37° C): 2.96 µM (≈ 0.999 µg/mL)
- MIC ([38]; Enterococcus raffinosus, ATCC49464): 2.96 µM (≈ 0.999 µg/mL)
- MIC ([39]; 5% CO2 atmosphere at 37° C): 2.96 µM (≈ 0.999 µg/mL)
- MIC ([39]; ambient air at 37° C): 2.96 µM (≈ 0.999 µg/mL)
- MIC ([40]; 5% CO2 atmosphere at 37° C): 2.96 µM (≈ 0.999 µg/mL)
- MIC ([40]; Enterococcus faecium, NR31912): 2.96 µM (≈ 0.999 µg/mL)
- MIC ([41]; 5% CO2 atmosphere at 37° C): 2.96 µM (≈ 0.999 µg/mL)
- MIC ([41]; Enterococcus casseliflavus, ATCC700327): 2.96 µM (≈ 0.999 µg/mL)
